Laboratory results from patent US8394404B2, “Adhesive material and adhesive preparation” (Nitto Denko Corporation, priority 2004, dated 2013).
Entries after “also recorded” stand apart in the source; their conditions may differ.

Test: in vitro permeability test using the skin removed from a mouse
Format: in vitro ADME
Conditions: adhesive preparation of the adhesive material of Example 3 with adhesive layer containing 5% ISDN
Protocol: Thus, the adhesive preparation of the present invention is useful as a percutaneously absorbable adhesive preparation for continuous administration of a drug into the body.
An adhesive preparation comprising the adhesive material of the above-mentioned Example 3, which has an adhesive layer containing 5% isosorbide dinitrate (ISDN) was prepared and subjected to an in vitro permeability test using the skin removed from a mouse.

SMILES: O=[N+]([O-])O[C@H]1CO[C@H]2[C@@H]1OC[C@H]2O[N+](=O)[O-] [ISDN, isosorbide dinitrate]
- percutaneous absorption of ISDN: percutaneous absorbability of ISDN was confirmed; also recorded: percutaneous absorption of ISDN was confirmed
